Values joined by “and” are separate entries in the source; they are usually repeats but may differ in a detail not shown here. Equal values may be shown once. “Also recorded” adds a separate entry of the source. Read-outs that look alike come from different tables or passages of the source. Marks after values point to notes of the source that are not given here.
What was measured:
rats [1] = assay: Loss of righting reflexes (LORR) assay in rats, ED50 by up and down method; format: in vivo, rat; conditions: tail vein; for ED50: Rattus norvegicus, class symbols
Method: The Anesthetic Activity of the Compounds was Assessed in Rats Using a Loss of Righting Reflexes (LORR) Assay
(§1) Adult male Sprague-Dawley rats (250-300 g) were selected for the experiment. […] The anesthesia effects of the compounds were assessed in rats using a LORR assay and a period >30 s was considered as an indicator of general anesthesia. Then the up and down method was used to determine 50% effective dose (ED50). The drugs were administered through the tail vein of rats in a volume of 0.6 mL and at a rate of 0.1 mL/s.

rats [2] = tested on: rats
Method: as §1

rats [3] = assay: Pharmacological characteristics at equivalent doses (2×ED50) in rats; conditions: 2×ED50, tail vein; for Adverse reactions: Tremor (incidence): animals affected/animals; for Onset time: time of LORR; for Adverse reactions: Red urine (incidence): DMSO solution (DMSO alone 10/10)
Method: Comparison of Pharmacological Characteristics of the Compounds at Equivalent Doses (2×ED50) in Rats
Adult male Sprague-Dawley rats (250-300 g) were selected for the experiment (n=8). […] The drugs were administered at a dose twice their ED50 through the tail vein of rats in a volume of 0.6 mL and at a rate of 0.1 mL/s. In addition, the time of LORR was recorded as the onset time of anesthesia. […] Furthermore, the duration of the pharmacological effects is sufficient to meet the time requirements for rapid induction of general anesthesia and for diagnostic examinations, some short invasive clinical examinations, or operations.

[4] = tested on: secretion of corticosterone, H295R cell line; assay: cells; format: cell-based; conditions: for EC50: read-out: EC50 (Corticosterone)
Method: (§2) The Effects of the Compounds on Adrenocortical Function In Vitro Test
(§3) Then secretion of the cortisol and corticosterone in the supernatant, was measured using HPLC-MS/MS method to determine whether the compounds of the present invention had adrenotoxic potential.

[5] = tested on: secretion of cortisol, H295R cell line; assay: cells; format: cell-based; conditions: for EC50: read-out: EC50 (Cortisol)
Method: as §2, §3

rats [6] = format: in vivo, rat; conditions: for recovery time of the test animals' righting reflex: rats of the MAP/HR figures, 2×ED50, tail vein, same value in min
Method: The Effects of the Compounds on the Circulatory Function were Measured in Rats Using a Small Animal Implanted Physiological Signal Telemetry System
The anesthetic activity of the compounds was assessed in rats using a LORR assay and the up and down method was used to determine ED50. […] A small animal implantable physiological signal telemetry system from DSI (Data Science International, Inc.) was used to measure the changes in heart rate (HR) and blood pressure in rats during 30 min after administration. Then mean arterial pressure (MAP) and HR were used as representative indicators to determine hemodynamic stability of the compounds of the present invention in rats.
A small animal implantable physiological signal telemetry system from DSI (Data Science International, Inc.) including implants (RATHD-521, DSI, United States), receiver boards (RPC-1, DSI, United States), signal conversion devices (DEM, DSI, USA), perfusion glue (DSI, USA), fibrin membrane (DSI, USA), etc.
First, animal models were established. A left ventricular catheter, an abdominal aortic catheter and ECG wires were placed into rats. At least one week after surgery, data were recorded.
Administration procedure: rats were put into a restraint device with a 20 G indwelling catheter placed into a lateral tail vein. After administration of 0.2 mL heparin, a pre-filled extension tube was attached and taped to the tail vein to secure the extension tube. Then the rats were removed from the restraint device to a cage before placing them together on the signal receiver. […] Finally, the pharmacological effects, adverse reactions, and behavioural manifestations of the rats were observed and recorded
Data collection: After setting the data collection parameters on the software, the power of the implant was turned on to start data collection. In this experiment, data recording frequency was set to 15 s. Data collection was continuously recorded for 30 min before and after administration of the drugs in rats. After data acquisition, the test was stopped.

rats [7] = tested on: rats; remark: listed apart in the source
Method: Pharmacological Effects of the Compounds on Continuous Infusion in Rats
Adult male Sprague-Dawley rats with body weight ranging from 250 to 300 gm were selected for continuous infusion test. […] Time to recovery of righting reflex from stopping infusion, and time to fully awake from stopping infusion were recorded.

rats [8] = format: in vivo, rat; conditions: rats of the MAP/HR figures, 2×ED50, tail vein
[9] = H295R cell line, 0.1-10000 nM, HPLC-MS/MS, Table D3
[10] = H295R cell line, 0.1-10000 nM, HPLC-MS/MS, Table E3
[11] = H295R, 0.1-10000 nM, HPLC-MS/MS
[12] = continuous tail vein infusion at 2×MIR, LORR maintained 1 hour, Table C4
[13] = continuous tail vein infusion at 2×MIR, LORR maintained 1 hour, Table D4
[14] = continuous tail vein infusion at 2×MIR, LORR maintained 1 hour, Table E4
[15] = emulsion, continuous infusion at 2×MIR

Compound: COC(=O)C1(OC(=O)c2cncn2[C@H](C)c2ccccc2)CC1 [CPMM, cyclopropyl methoxycarbonyl methylate, reference compound]
- ED50 (mg/kg) (rats [1]; brackets = 95% confidence limit): 0.78 (0.74-0.82)* mg/kg
- Approximate therapeutic index (rats [2]): >10
- Minimal lethal dose (rats [2]): >7.8 mg/kg
- Adverse reactions: Convulsions (incidence) (rats [3]): Convulsions (4/10), Tremor and 4/10 and Convulsions (4/10), and (4/10),
- Adverse reactions: Myoclonus (incidence) (rats [3]): (5/10), Myoclonus (5/10); also recorded: Myoclonus (5/10)
- Righting reflex duration (rats [3]): 1.62 ± 0.63 min
- Adverse reactions: Tremor (incidence) (rats [3]): (5/10), Myoclonus (5/10) and 5/10 and Tremor (5/10), and (5/10),
- Onset time (rats [3]): 0.26 ± 0.08 min
- Corticosterone as an indicator to determine the presence of inhibition [4, 9]: 1
- EC50 [4, 9]: > 0.1 µM
- Corticosterone as an indicator to determine the presence of inhibition [4, 10]: 1
- EC50 [4, 10]: > 0.1 µM
- EC50 [4, 11]: > 0.1 µM
- Corticosterone as an indicator to determine the presence of inhibition ([4]; H295R, Table A3): 1
- Corticosterone as an indicator to determine the presence of inhibition ([4]; H295R, Table B3): 1
- Corticosterone as an indicator to determine the presence of inhibition ([4]; H295R, Table C3): 1
- Cortisol as an indicator to determine the presence of inhibition [5, 9]: 1
- EC50 [5, 9]: > 0.01 µM
- Cortisol as an indicator to determine the presence of inhibition [5, 10]: 1
- EC50 [5, 10]: > 0.01 µM
- EC50 [5, 11]: > 0.01 µM
- Cortisol as an indicator to determine the presence of inhibition ([5]; H295R, Table A3): 1
- Cortisol as an indicator to determine the presence of inhibition ([5]; H295R, Table B3): 1
- Cortisol as an indicator to determine the presence of inhibition ([5]; H295R, Table C3): 1
- effect on the circulatory function (MAP, HR) (rats [6]; rats, 2×ED50, 30 min after administration): almost no inhibitory effect on the circulatory function
- Recovery time after stopping infusion (rats [7]; after 1 hour infusion at 2×MIR): 7 to 8 min
- Adverse reactions: Convulsions (incidence) (rats [7]; continuous infusion 2×MIR): 3/6
- Adverse reactions: Myoclonus (incidence) (rats [7]; continuous infusion 2×MIR): Myoclonus (5/6)
- Adverse reactions: Tremor (incidence) (rats [7]; continuous infusion 2×MIR): 5/6
- Onset time (rats [7]; [12]): 3 to 4 min
- Recovery time after stopping infusion (rats [7]; [12]): 7 to 8 min
- Onset time (rats [7]; [13]): 3 to 4 min
- Recovery time after stopping infusion (rats [7]; [13]): 7 to 8 min
- Onset time (rats [7]; [14]): 3 to 4 min
- Recovery time after stopping infusion (rats [7]; [14]): 7 to 8 min
- Onset time (rats [7]; [15]): 3 to 4 min

Compound: C=C=CC(C)(C)OC(=O)c1c(F)ncn1[C@H](C)c1ccccc1 [Compound E19]
- ED50 (rats [1]): 0.01 to 0.1 mg/kg
- Approximate therapeutic index (rats [2]): >40
- Minimal lethal dose (rats [2]): >4 mg/kg
- Righting reflex duration (rats [3]): 0.80 ± 0.30 min
- Adverse reactions: Red urine (incidence) (rats [3]): urine (8/8)
- Adverse reactions: Tremor (incidence) (rats [3]): (3/8), Red
- Onset time (rats [3]): 0.34 ± 0.13 min
- recovery time of the test animals' righting reflex (rats [6]): 0.93 min
- recovery time of the test animals' righting reflex (rats [8]): 56 s

Compound: C[C@H](c1ccccc1)n1cnc(F)c1C(=O)OC1CSC1 [Compound E11]
- ED50 (rats [1]): 0.01 to 0.1 mg/kg
- Approximate therapeutic index (rats [2]): >60
- Minimal lethal dose (rats [2]): >4 mg/kg
- Righting reflex duration (rats [3]): 1.52 ± 0.53 min
- Adverse reactions: Red urine (incidence) (rats [3]): (8/8)
- Onset time (rats [3]): 0.57 ± 0.25 min
- recovery time of the test animals' righting reflex (rats [6]): 1.55 min
- recovery time of the test animals' righting reflex (rats [8]): 93 s

Compound: CC#CC(C)OC(=O)c1c(F)ncn1[C@H](C)c1ccccc1 (some centres unmarked) [Compound E16]
- ED50 (rats [1]): 0.1 to 0.5 mg/kg
- Approximate therapeutic index (rats [2]): >20
- Minimal lethal dose (rats [2]): >4 mg/kg
- Righting reflex duration (rats [3]): 3.59 ± 1.22 min
- Adverse reactions: Red urine (incidence) (rats [3]): (8/8)
- Onset time (rats [3]): 0.30 ± 0.09 min
- recovery time of the test animals' righting reflex (rats [6]): 3.33 min
- recovery time of the test animals' righting reflex (rats [8]): 200 s

Compound: C[C@H](c1ccccc1)n1cncc1C(=O)OCC1(C2CO2)CCC1 (some centres unmarked) [Compound A21]
- ED50 (rats [1]): 0.1 to 0.5 mg/kg
- Approximate therapeutic index (rats [2]): >16
- Minimal lethal dose (rats [2]): >5 mg/kg
- Righting reflex duration (rats [3]): 1.75 ± 0.26 min
- Adverse reactions: Red urine (incidence) (rats [3]): Red urine (8/8)
- Onset time (rats [3]): 0.27 ± 0.19 min
- Corticosterone as an indicator to determine the presence of inhibition ([4]; H295R, Table A3): 0
- EC50 ([4]; Homo sapiens, NCI-H295R): > 1 µM
- Cortisol as an indicator to determine the presence of inhibition ([5]; H295R, Table A3): 0
- EC50 ([5]; Homo sapiens, NCI-H295R): > 1 µM
- Recovery time after stopping infusion (rats [7]; after 1 hour infusion at 2×MIR): 15 to 25 min
- Types and incidence of adverse reactions (rats [7]; continuous infusion 2×MIR, in words): No
- Onset time (rats [7]; [15]): 3 to 4 min

— patent publication US11434205B2, “Substituted imidazole carboxylate derivatives and the use thereof” (priority 2018, dated 2022)
